Test results taken from US9796711B2, “Substituted pyrazolo[3,4-b]pyridin-6-carboxylic acids and method of use” (AbbVie S.àr.l., priority 2015, dated 2017).

Tests used:
ΔF508-CFTR [1] = target: T1, ΔF508-CFTR (Homo sapiens, UniProt P13569, DEL508-508); assay: CFTR cell surface levels using HRP-tagged ΔF508-CFTR expressing CFBE cells, in the presence of a co-corrector; format: cell-based; conditions: HRP-tagged ΔF508-CFTR expressing CFBE cells, in the presence of 3 μM co-corrector; for EC50: read-out: EC50
T1 construct: host or cells: CFBE41o-, doxycycline-inducible
T1 sequence (P13569 with tags, fused parts or gaps DEL508-508): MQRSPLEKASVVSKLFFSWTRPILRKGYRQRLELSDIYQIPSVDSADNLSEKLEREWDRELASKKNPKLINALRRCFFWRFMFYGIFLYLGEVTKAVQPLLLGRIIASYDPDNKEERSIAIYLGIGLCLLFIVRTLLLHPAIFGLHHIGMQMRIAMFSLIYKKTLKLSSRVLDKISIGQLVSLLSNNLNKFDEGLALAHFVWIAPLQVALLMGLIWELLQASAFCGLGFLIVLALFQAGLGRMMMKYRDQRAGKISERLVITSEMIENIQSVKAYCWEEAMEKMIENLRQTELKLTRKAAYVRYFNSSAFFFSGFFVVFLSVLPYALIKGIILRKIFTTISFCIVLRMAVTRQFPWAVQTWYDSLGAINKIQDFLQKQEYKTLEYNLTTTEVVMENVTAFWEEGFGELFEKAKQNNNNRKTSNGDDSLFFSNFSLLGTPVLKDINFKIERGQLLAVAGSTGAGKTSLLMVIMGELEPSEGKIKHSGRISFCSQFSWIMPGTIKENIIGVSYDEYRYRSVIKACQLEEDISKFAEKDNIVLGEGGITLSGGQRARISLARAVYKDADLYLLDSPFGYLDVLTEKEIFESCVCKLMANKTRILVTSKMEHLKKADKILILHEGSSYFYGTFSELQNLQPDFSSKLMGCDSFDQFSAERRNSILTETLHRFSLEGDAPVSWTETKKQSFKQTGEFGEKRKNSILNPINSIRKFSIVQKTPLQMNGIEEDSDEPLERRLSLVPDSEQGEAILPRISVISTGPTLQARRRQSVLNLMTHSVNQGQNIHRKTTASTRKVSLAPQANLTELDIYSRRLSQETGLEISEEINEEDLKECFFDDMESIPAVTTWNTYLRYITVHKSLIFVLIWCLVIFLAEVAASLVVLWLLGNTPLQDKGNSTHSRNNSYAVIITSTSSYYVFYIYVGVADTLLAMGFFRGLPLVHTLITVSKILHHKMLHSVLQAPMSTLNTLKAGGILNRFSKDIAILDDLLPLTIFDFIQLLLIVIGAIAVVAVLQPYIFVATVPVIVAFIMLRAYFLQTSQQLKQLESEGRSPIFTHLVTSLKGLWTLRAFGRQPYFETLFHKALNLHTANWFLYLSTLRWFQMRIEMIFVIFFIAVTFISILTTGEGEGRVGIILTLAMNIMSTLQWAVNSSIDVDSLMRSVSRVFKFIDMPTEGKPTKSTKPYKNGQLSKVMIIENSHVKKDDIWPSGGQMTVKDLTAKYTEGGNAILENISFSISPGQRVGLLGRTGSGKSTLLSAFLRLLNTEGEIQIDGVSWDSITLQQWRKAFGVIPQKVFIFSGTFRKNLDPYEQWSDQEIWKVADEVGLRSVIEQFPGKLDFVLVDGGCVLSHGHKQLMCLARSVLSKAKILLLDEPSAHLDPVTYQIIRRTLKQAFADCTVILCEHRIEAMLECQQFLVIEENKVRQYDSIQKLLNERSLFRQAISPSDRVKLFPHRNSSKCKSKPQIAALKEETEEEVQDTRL
Procedure, shortened: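 Cells were seeded with 0.5 μg/mL doxycycline and held 68 h at 37 °C. Test compounds plus 3 μM co-corrector (final 0.1% DMSO) were then added for 20 h at 33 °C. Washed cells received HRP substrate, and luminescence was normalized between DMSO and 3 μM co-corrector controls.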

ΔF508-CFTR [2] = target: T1, ΔF508-CFTR; assay: CFTR cell surface levels using HRP-tagged ΔF508-CFTR expressing CFBE cells, intrinsic corrector capacity; format: cell-based; conditions: HRP-tagged ΔF508-CFTR expressing CFBE cells, intrinsic corrector capacity (no co-corrector), 33° C., 20 hours; for EC50: read-out: EC50
Procedure, shortened: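 Here the cells express ΔF508-CFTR with horseradish peroxidase inserted in extracellular loop 4, so only rescued channel at the surface gives luminescent signal. Compounds act on their own, 20 h at the reduced temperature of 33 °C; values are percent activity relative to DMSO and a 3 μM corrector.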

Compound	% Activation (ΔF508-CFTR [1]) [%]	EC50 (ΔF508-CFTR [1]) [nM]	% Activation (ΔF508-CFTR [2]) [%]	EC50 (ΔF508-CFTR [2]) [nM]
O=C(O)c1cc(N2CCC(F)CC2)c2c(C3CCC3)nn(-c3ccccc3)c2n1 [compound 444, 3-cyclobutyl-4-(4-fluoropiperidin-1-yl)-1-phenyl-1H-pyrazolo[3,4-b]pyridine-6-carboxylic acid]	282.8	543	111.15	1110
O=C(O)c1cc(N2C[C@H](O)[C@@H](O)C2)c2c(C3CCC3)nn(-c3ccccc3)c2n1 [compound 446, 3-cyclobutyl-4-[(3S,4S)-3,4-dihydroxypyrrolidin-1-yl]-1-phenyl-1H-pyrazolo[3,4-b]pyridine-6-carboxylic acid]	171.35	3340	20.695	> 10000
CN(C)CCC1CCN(c2cc(C(=O)O)nc3c2c(C2CCC2)nn3-c2ccccc2)CC1 [compound 447, 3-cyclobutyl-4-{4-[2-(dimethylamino)ethyl]piperidin-1-yl}-1-phenyl-1H-pyrazolo[3,4-b]pyridine-6-carboxylic acid]	415.6	724	243.3	1120
CCN(CC)CCC1CCN(c2cc(C(=O)O)nc3c2c(C2CCC2)nn3-c2ccccc2)CC1 [compound 448, 3-cyclobutyl-4-{4-[2-(diethylamino)ethyl]piperidin-1-yl}-1-phenyl-1H-pyrazolo[3,4-b]pyridine-6-carboxylic acid]	387.15	646	239.2	1080
O=C(O)c1cc(N2CCN(CC3CC3)CC2)c2c(C3CCC3)nn(-c3ccccc3)c2n1 [compound 449, 3-cyclobutyl-4-[4-(cyclopropylmethyl)piperazin-1-yl]-1-phenyl-1H-pyrazolo[3,4-b]pyridine-6-carboxylic acid]	298.55	918	139.3	1350
O=C(O)c1cc(N2CCN(C3CCC3)CC2)c2c(C3CCC3)nn(-c3ccccc3)c2n1 [compound 450, 3-cyclobutyl-4-(4-cyclobutylpiperazin-1-yl)-1-phenyl-1H-pyrazolo[3,4-b]pyridine-6-carboxylic acid]	377.1	456	165.85	1090
CC1(F)CN(c2cc(C(=O)O)nc3c2c(C2CCC2)nn3-c2ccccc2)C1 [compound 451, 3-cyclobutyl-4-(3-fluoro-3-methylazetidin-1-yl)-1-phenyl-1H-pyrazolo[3,4-b]pyridine-6-carboxylic acid]	234.95	874	71.425	1290
O=C(O)c1cc(N2CCC3(CCCC3)CC2)c2c(C3CCC3)nn(-c3ccccc3)c2n1 [compound 452, 4-(8-azaspiro[4.5]decan-8-yl)-3-cyclobutyl-1-phenyl-1H-pyrazolo[3,4-b]pyridine-6-carboxylic acid]	282.3	1110	74.98	1110
O=C(O)c1cc(N2CCC3(CC2)CC(F)(F)CO3)c2c(C3CCC3)nn(-c3ccccc3)c2n1 [compound 453, 3-cyclobutyl-4-(3,3-difluoro-1-oxa-8-azaspiro[4.5]decan-8-yl)-1-phenyl-1H-pyrazolo[3,4-b]pyridine-6-carboxylic acid]	275.35	656	110.68	716
CN1CCC(C2CCN(c3cc(C(=O)O)nc4c3c(C3CCC3)nn4-c3ccccc3)CC2)CC1 [compound 454, 3-cyclobutyl-4-(1′-methyl[4,4′-bipiperidin]-1-yl)-1-phenyl-1H-pyrazolo[3,4-b]pyridine-6-carboxylic acid]	470.3	636	253.5	998
